{"source": "patent US6596712B2", "about": "“Treatment of carcinomas using squalamine in combination with other anti-cancer agents or modalities” (Genaera Corporation, priority 1996, dated 2003)", "key": {"[1]": {"assay": "Tissue distribution after i.v. administration", "assay_type": "in vivo, mouse", "settings": "two hours after i.v. administration", "description": "In addition to these squalamine half-life tests, applicants have tested to ascertain the distribution of squalamine in a mouse after intravenous administration. FIG. 7 illustrates the distribution of squalamine in mouse tissue two hours after i.v. administration. […] The test results shown in FIG. 7 indicate good squalamine distribution. […] In treating brain tumors, it is believed that the squalamine acts on the endothelial cells in the brain, and in this way, it need not cross the brain/blood barrier"}, "[2]": {"system": "LNCaP cells", "assay": "LNCaP xenograft post-orchiectomy (Example 6)", "assay_type": "in vivo, athymic mice", "settings": "20 mg/kg/day for six to ten weeks from castration", "description": "LNCaP cells admixed with Matrigelm were implanted subcutaneously in 52 athymic mice. Those that developed measurable tumors and sufficient elevations in serum prostate specific antigen (“PSA”) (measured using a standard commercially available kit such as from Abbott Diagnostics (St. Louis, Mo.)) underwent orchiectomy. Subsequent to castration, these animals were distributed among the four groups (1-4) outlined below: and an additional control cohort of mice which were castrated but never treated with squalamine.\nIn the majority of animals, PSA levels fell to zero at time of castration. By three weeks they began to rebound and continued to rise steadily until the animals succumbed or were sacrificed. In these same mice, tumor size tended to plateau at time of orchiectomy, before beginning to increase in size correspondingly with PSA rebound. The serum PSA curve and tumor volume measurements from two members of this last control cohort are illustrated in FIG. 15a and b, respectively.\nTen mice began treatment with squalamine concomitant with the fall in PSA after castration (Group 1). Of these, three never experienced a post-orchiectomy PSA nadir, and one experienced an early death, of unknown etiology. Six animals, however, were treated with squalamine (at 20 mg/kg/day) for a range of six to ten weeks. […]"}, "[3]": {"system": "rat 9L glioma", "assay": "Glioma lethality study, rat glioma implanted into rat brain", "assay_type": "in vivo", "settings": "20 mg/kg/day i.p. from three days after implantation", "description": "FIG. 10 illustrates survival test results using squalamine in a glioma lethality study with a rat 9L glioma introduced into the brains of healthy rats;\nIn view of these test results, applicants tested squalamine in an animal model for brain cancer. To test the effect of squalamine on tumors located in the brain, small sections (1 mm3) of existing rat gliomas were taken from rat flanks where they were being maintained and were implanted into the rat brains in two groups of rats. Thus, in this model, the tumors were viable when placed in the rat brain. Three days after implantation, and after some vasculature had developed, treatment with 20 mg/kg/day of squalamine (i.p.) was initiated in one group of rats. The control animals (“vehicle control” in FIG. 10) were given the carrier vehicle only (no squalamine), and the other animals were treated with squalamine (“Squalamine” in FIG. 10)."}, "[4]": {"molecular_target": "T1, rabbit NHE3 (Oryctolagus cuniculus, UniProt P26432)", "T1 construct": "expressed in transfected cells", "T1 sequence (P26432 30-832)": "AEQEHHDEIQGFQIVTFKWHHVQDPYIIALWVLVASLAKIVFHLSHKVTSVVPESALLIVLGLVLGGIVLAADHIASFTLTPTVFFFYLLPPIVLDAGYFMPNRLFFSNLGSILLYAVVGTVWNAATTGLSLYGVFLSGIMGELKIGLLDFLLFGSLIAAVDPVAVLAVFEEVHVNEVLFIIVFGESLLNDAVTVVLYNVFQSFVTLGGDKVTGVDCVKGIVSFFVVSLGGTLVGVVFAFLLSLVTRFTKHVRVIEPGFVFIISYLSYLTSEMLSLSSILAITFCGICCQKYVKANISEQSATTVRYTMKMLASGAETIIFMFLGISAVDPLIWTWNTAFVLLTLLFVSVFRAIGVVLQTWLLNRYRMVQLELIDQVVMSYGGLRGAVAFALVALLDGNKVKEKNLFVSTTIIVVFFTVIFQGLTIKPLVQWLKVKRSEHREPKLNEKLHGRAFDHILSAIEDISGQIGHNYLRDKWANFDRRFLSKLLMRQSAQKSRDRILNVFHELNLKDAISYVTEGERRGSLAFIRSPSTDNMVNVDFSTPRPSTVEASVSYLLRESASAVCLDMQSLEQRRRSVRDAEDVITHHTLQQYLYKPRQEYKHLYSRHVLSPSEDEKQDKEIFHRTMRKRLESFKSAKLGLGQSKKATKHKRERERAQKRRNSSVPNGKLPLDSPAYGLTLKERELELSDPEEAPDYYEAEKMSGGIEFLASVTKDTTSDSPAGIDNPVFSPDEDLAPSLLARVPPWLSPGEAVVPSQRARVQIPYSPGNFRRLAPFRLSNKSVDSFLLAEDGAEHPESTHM", "assay": "NHE activity, rabbit NHE3", "assay_type": "cell-based", "settings": "for decrease of Vmax of rabbit NHE3: 1 hour pretreatment"}}}
{"smiles": "CC(C)[C@@H](CC[C@@H](C)[C@H]1CC[C@H]2[C@@H]3[C@H](O)C[C@H]4C[C@@H](NCCCNCCCCN)CC[C@]4(C)[C@H]3CC[C@]12C)OS(=O)(=O)O", "note": "[Squalamine, squalamine]", "values": [{"measurement": "distribution in mouse tissue", "setting": "[1]", "result": "most of the squalamine concentrating in the liver and the small intestine"}, {"measurement": "squalamine in brain tissue", "setting": "[1]", "result": "not much squalamine is present in brain tissue"}, {"measurement": "tumor masses", "setting": "[2]", "result": "tended to diminish and, eventually, disappear"}, {"measurement": "increase in mean survival time", "setting": "[3]", "result": 38, "unit": "%"}, {"measurement": "mean survival time", "setting": "[3]", "result": 24.9, "unit": "days"}, {"measurement": "time dependence of effect on Vmax", "setting": "[4]", "result": "maximum effect occurring at one hour exposure"}, {"measurement": "decrease of Vmax of rabbit NHE3", "setting": "[4]; 1 μg squalamine/ml", "result": 13, "unit": "%"}, {"measurement": "decrease of Vmax of rabbit NHE3", "setting": "[4]; 5 μg squalamine/ml", "result": 47, "unit": "%"}, {"measurement": "decrease of Vmax of rabbit NHE3", "setting": "[4]; 7 μg squalamine/ml", "result": 57, "unit": "%"}, {"measurement": "reversibility of effect on Vmax", "setting": "[4]; after removing the cells from the medium", "result": "fully reversible within three hours"}, {"measurement": "effect on rabbit NHE3", "setting": "[4]; similar tests", "result": "inhibited"}]}
